Data on 89 compounds can be found in a melting point compilation (Tetko et al.; mined from patent text by program, amines drawn as free bases though some values may be those of a salt).

Molecules are shown by their SMILES. Where only a bound is given, the exact number is not on record here.

In turn, `N=C(NCCCc1c[nH]cn1)N[N+](=O)[O-]` showed a melting point of 156 to 158 °C.
Under `NC1CC2c3ccccc3Cc3ccccc3N2C1=O` (centres undefined) stands 186 to 188 °C; under `Fc1ccc(C(c2ccc(F)cc2)C2CCN(CCCOc3c(Cl)cccc3Cl)CC2)cc1`, 102 to 103 °C; under `Cc1cc(C)c(COc2cccnc2N)c(C)c1`, 160 to 166 °C.
Compound `CSc1ccccc1C(=O)CBr` yielded a melting point of 81 to 82 °C.
In turn, `CCCCn1c(=O)c(NC(=O)Nc2c(C(C)C)cccc2C(C)C)c(-c2cccc(CCCO)c2)c2cccnc21` registered a melting point of 188 to 189 °C.
Compound `CCOC(=O)C(=O)Nc1cccc(N)c1C#N` returned a melting point of 133 to 136 °C.
`COc1cc(Nc2nc3cccc(-c4cccc(N)c4)c3o2)cc(OC)c1OC`: the melting point is 145 to 170 °C.
With `O=c1c2c(N3CCNCC3)cc(Cl)cc2n(Cc2ccccc2)c(=O)n1Cc1ccccc1`, the melting point was in the range of 115 to 123 °C.
In turn, `NC(=O)CNC(=S)Nc1c(Cl)cccc1Cl` displayed a melting point of 189 to 191 °C.
As to `CC(C)(C)C(NC(=O)c1ccc(Cl)cc1)NC(=NC#N)NCc1ccc(Cl)cc1` (centres undefined), the melting point fell in the range of 173 to 175 °C.
The compound `CS(=O)(=O)c1ccc(-n2cc(-c3cccc(F)c3)nc2-c2ccc(Cl)cc2)cc1` showed a melting point of 194 to 196 °C.
Under `Cc1nnc2n1-c1sc(C(=O)O)cc1C(c1ccccc1Cl)=NC2` stands 302 °C.
In turn, `CCCc1nc2cnc3ccccc3c2n1CCCCNS(=O)(=O)c1ccccc1` came in with a melting point of 156 to 157 °C.
`Cc1ccc(CN2CCN([C@@H](CNS(=O)(=O)c3ccc(OCc4cc(C)nc5ccccc45)cc3)C(=O)NO)CC2)cc1` came in with a melting point of 170 °C.
`Cc1cc(SC2=C(O)CC(CCC3CCCC3)(C3CCCC3)OC2=O)c(C(C)(C)C)cc1CO` (centres undefined) came in with a melting point of 68 to 71 °C.
`Cc1cc(C)c2sc(-c3ccccn3)nc(=O)c2c1` gave a melting point of 245 to 246 °C.
Under `CC(C)(C)OC(=O)N1CCN(CCOc2cccc3c2c2cccc4c2n3C(c2ccccc2)CO4)CC1` (centres undefined) stands 72 °C; under `Nc1ncnc(OCc2ccccc2)c1[N+](=O)[O-]`, 149 to 150 °C; under `CCc1nc2c(cnn2CC)c(NC2CCOCC2)c1CNC(=O)c1cccc(C(=O)NCc2ccc(F)c(-c3cccc(CN4CC5CC4CN5)c3)c2)c1` (centres undefined), 129 to 133 °C.
Take `CCN(CC)CC(=O)Nc1ccc(NC(=O)Nc2ccc(N(CCCl)CCCl)cc2)cc1`: the melting point is 209 to 211 °C.
`C=CCCC(C)(NC(c1ccccc1)c1ccccc1)P(O)O` (centres undefined) came in with a melting point of 180 °C.
The compound `O=C(NC1CCN(CCC2CCOc3ccccc32)CC1)c1ccncc1` (centres undefined) had a melting point of 122 to 123 °C.
Under `CC1(C)C(C(=O)NC(=O)CN)C1(C)C` stands 176 °C; under `CC(=O)n1ncc2c(O)ccc(C)c21`, 135 to 136 °C.
As for `CC1(Cc2ccc3c(c2)OCCO3)CN(C(c2ccccc2)c2ccccc2)CCN1` (centres undefined), the melting point is 144 °C.
On to `CNC(=O)N1CCC(c2nn(-c3ccc(C(F)(F)F)cc3)c3ccccc23)CC1`, for which the melting point lay within 150 to 152 °C.
`O=C(O)C(O)COc1ccc(Cl)cc1` (centres undefined): the melting point fell in the range of 135 to 136 °C.
Compound `CS(=O)(=O)N1C[C@H](S)C[C@H]1COc1ccccc1` yielded a melting point of 78 to 79 °C.
Regarding `CCN(CC)c1ccc(C(=O)O)nc1`, the melting point was 146 to 148 °C.
The compound `COC(=O)C=Cc1c(C(=O)OC)c2c(n1C)C(=O)C=C(OC)C2=O` returned a melting point of 235 to 236 °C.
For `CS(=O)(=O)Nc1ccc(C(=O)NCC23CCCN(CCC2)C3)cc1`, the melting point lay within 137 to 139 °C.
Under `CC(C)(C)OC(=O)N[C@@H](CC1CCCCC1)[C@@H](O)CCO` stands 77 to 79 °C; under `NS(=O)(=O)c1cc(C(=O)O)cc(SCc2ccsc2)c1-c1ccccc1`, 92 to 94 °C.
Compound `CCCCc1ncc(/C=C(\Cc2ccc(OC)s2)C(=O)O)n1Cc1ccccc1Cl` registered a melting point of 184 to 186 °C.
In turn, `O=[N+]([O-])c1cccnc1NCCc1c[nH]cn1` displayed a melting point of 178 to 180 °C.
`CCOc1ccc2c(c1)n(C1CCCCC1)c(=O)n2S(=O)(=O)c1ccc(C(=O)NC(C)(C)CO)cc1OC` came in with a melting point of 218 °C.
Compound `COc1nc(OC)c(C(C)C)c(C(=O)c2cc(Cl)cc(Cl)c2)n1` showed a melting point of 120 to 121 °C.
On to `NCC1Cc2cc3c(cc2O1)CCCC3` (centres undefined), for which the melting point is over 225 °C.
For the compound `COc1cccc(-c2c(C(=O)O)c(=O)n(C)c3ncccc23)c1`, the melting point was in the range of 196 to 197 °C.
`CCCCCCNc1ccccc1CC(=O)Nc1c(C(C)C)cccc1C(C)C` came in with a melting point of 110 to 112 °C.
In turn, `CC(=O)NC[C@H]1CN(c2ccc(N3CC(O[Si](C)(C)C(C)(C)C)C3)c(F)c2)C(=O)O1` yielded a melting point of 184 °C.
Consider `CC(C)(CS(=O)(=O)c1ccc(Oc2ccc(Cl)cn2)cc1)C(=O)NO`, for which the melting point was 116 to 117 °C.
Under `CC1SC(=O)NN=C1c1ccc2c(c1)C(C)(C)C(=O)N2C` (centres undefined) stands 125 °C.
The compound `NC(=O)C(OCc1ccc(-c2ccc(Cl)cc2)cc1)(C(F)(F)F)C(F)(F)F` returned a melting point of 123 to 124 °C.
As to `C#Cc1cccc(Nc2ncnc3ccc(S(=O)(=O)n4ccc(C=CC(=O)O)c4)cc23)c1`, the melting point lay within 286 to 289 °C.
Under `O=C(NCc1ccc(Cl)cc1)c1cn2c3c(cc(CN4CCOCC4)cc3c1=O)OC(c1ccccc1O)C2` (centres undefined) stands 239 °C; under `CCOc1cc(C=O)ccc1OCc1nc(-c2ccco2)oc1C`, 159 to 160 °C.
In turn, `CCc1cc2c(cc1Sc1ccc(C(=O)O)cc1)C(C)(C)CCC2(C)C` had a melting point of 82 to 83 °C.
The compound `CCOC(=O)c1c(Cl)c2cc(F)cnc2[nH]c1=O` displayed a melting point of 217 °C.
Compound `COc1cc(N)c(Cl)cc1C(=O)N[C@H]1CCN(CC#N)C[C@H]1OC` (relative stereo) came in with a melting point of 130 °C.
Under `NC(=O)c1ccc(S(=O)(=O)NCCC2CCC(CC(=O)O)CC2)cc1` (centres undefined) stands 172 to 174 °C.
Under `CCOC(=O)Cc1c(C)n(Cc2csc(-c3ccc(Cl)cc3)n2)c2ccc(OCc3csc(-c4ccccc4)n3)cc12` stands 155 to 157 °C; under `Nc1c(Br)cnn1-c1c(Cl)ccc(Cl)c1Cl`, 129 °C; under `CSc1nc(-c2ccc(F)cc2)nc(-c2ccccn2)n1`, 158 °C.
In turn, `C=CCOc1ccccc1OCCNCC(O)COc1cccc2c1CC(=O)N2` (centres undefined) had a melting point of 148 to 149 °C.
Under `CCCCNc1cccc2c1C(=O)c1ccccc1C2=O` stands 78 to 79 °C; under `O=C(Nc1cccc2cc(Br)cnc12)c1ccc(O)c(O)c1O`, 183 to 193 °C.
As to `CCC1C(=O)Nc2cccc3c2N1C(=O)C3c1ccccc1` (centres undefined), the melting point is 205 to 208 °C.
For `CCCCCCCCCC(=O)OCC#Cc1ncn2c1CN(C)C(=O)c1c(Cl)cccc1-2`, the melting point lay within 70 to 72 °C.
As for `O=c1oc(C(F)(F)F)nc(-c2ccccc2)c1-c1ccccc1`, the melting point was found to be 118 °C.
Compound `Cc1oc(-c2ccco2)nc1COc1ccc(COc2nn(Cc3ccccc3)cc2CO)cc1OCc1ccccc1` registered a melting point of 145 to 146 °C.
Under `CNc1cccc(Cl)n1` stands 63.5 to 64.5 °C; under `Cc1cnc(C#N)c(C)c1[N+](=O)[O-]`, 66 to 71 °C.
Under `Cc1ccc(Oc2ccc(S(=O)(=O)C[C@H]([C@H]3COC(C)(C)O3)N(O)C=O)cc2)cc1` stands 156 to 158 °C.
The compound `CCCCn1c(=O)cn[nH]c1=O` registered a melting point of 135 °C.
The compound `CC(C)(C)OC(=O)NCCNC(=O)c1ncccc1Oc1cccc(Cl)c1` gave a melting point of 86 to 87 °C.
`N#Cc1c[nH]c(Cl)c1-c1cccc(F)c1` yielded a melting point of 158 to 161 °C.
The compound `C1=C(c2c[nH]c3ccccc23)CCN(CC2COc3ccc4c(c3O2)OCCC4)C1` (centres undefined) yielded a melting point of 140 °C.
`Cc1cc(C)cc(-c2[nH]c3ccc(-c4nccs4)cc3c2CCN)c1` yielded a melting point of 98.5 to 100 °C.
`Cc1ccccc1NC(=O)c1cc([N+](=O)[O-])ccc1NC(=O)CF` yielded a melting point of 238 to 239 °C.
Compound `O=C1CCC(c2ccc(Cl)c(Cl)c2)c2ccccc21` (centres undefined) gave a melting point of 99 to 101 °C.
Under `C[C@H](c1ccccc1CCn1cncn1)N(c1cc(F)ccc1F)S(=O)(=O)c1ccc(Cl)cc1` stands 116 to 118 °C; under `CC(=O)NCc1ccc2c(C#N)cn(C3CCN(CCc4ccc(F)cc4)CC3)c2c1`, 130 to 131 °C; under `CCOC(=O)C1CCC2(C)C(=CC(=O)C3C4CCC(=O)C4(C)CCC32)C1` (centres undefined), 187 to 188 °C.
`Cc1nn(C)c(C(N)=O)c1[N+](=O)[O-]` had a melting point of 153 to 155 °C.
In the case of `N#Cc1cc2c(cc1F)S(=O)(=O)NCN2C1CC1`, the melting point fell in the range of 208 to 210 °C.
Compound `O=C1CCC(O)(c2ccc(F)cc2)CC1` returned a melting point of 108 to 114 °C.
Consider `CCCCNC(=O)c1cc(S(=O)(=O)NC23CC4CC(CC(C4)C2)C3)cc2c1OCCO2`, for which the melting point is 147 °C.
Under `CCc1ccc2cc(C)c(-n3cncn3)nc2c1` stands 72 to 73 °C.
Regarding `Nc1ccc(N2CCc3ccncc3C2)cc1`, the melting point was over 220 °C.
`CCC(C)NC1=NS(=O)(=O)c2cc(C(F)(F)F)ccc2N1` (centres undefined): the melting point fell in the range of 234 to 236 °C.
`ClC1CCCOC1c1ccccc1` (centres undefined) had a melting point of 39.5 to 40.5 °C.
On to `Cc1ccccc1Nc1nc(Cl)nc2ccccc12`, for which the melting point is 192 to 194 °C.
Consider `Oc1ccc(-c2nc3ccc(O)cc3c(-c3ccc(F)cc3)c2Cl)cc1`, for which the melting point lay in the range of 295 to 296 °C.
The compound `CC(=O)OC1CSC(Oc2cncc(-c3ncccc3C)c2)C(OC(C)=O)C1OC(C)=O` (centres undefined) had a melting point of 148 to 150 °C.
In turn, `Cc1c(O)nc2ccc(F)cc2c1C(=O)O` returned a melting point of over 305 °C.
`COc1cccc(C2(CC(=O)O)C(=O)Nc3ccc(Cl)cc32)c1OC` (centres undefined) displayed a melting point of 235 °C.
Under `CCCC(=O)Cc1cc(OC)ccc1NC(=O)OC(C)(C)C` stands 77 to 78 °C.
